Starred links: 1 amine or outer side, 2 acyl side, 3 side chain; linkers in the order of their positions; H or OH if unused. Non-standard residues stand in square brackets, D forms with d. Residues, ends and D or L forms follow the SMILES beside them. Groups on a side chain read outwards from the residue. *: point of attachment. DTPA = O=C(O)CN(CCN(CC(=O)O)CC(=O)O)CCN(CC(=O)O)CC(=O)*; NH(2-(imidazol-4-yl)ethyl) = c1ncc(CCN*)[nH]1; Suc = O=C(CCC(=O)[*:2])[*:1]
Experiments:
B-cell lymphoma = test: Therapy of B-cell lymphoma patient with internalization by cross-linking; type: in vivo
Procedure: A patient having B-cell lymphoma with extensive node involvement is infused intraveneously with a sterile, pyrogen-free solution containing a target dose of bispecific hA20Fab-679scFv prepared as described in U.S. application Ser. Nos. 09/337,756 and 60/360,229. After 24 hours, the patient then is infused intraveneously with a sterile, pyrogen-free PBS solution that contains a therapeutic dose of DTPA-Gln-Ala-Lys(HSG)-D-[I-131Tyr]-Lys(HSG)-NH2. After 24 hours the patient then is intraveneously infused with 50 mg of sterile, pyrogen-free PBS solution of bispecific hLL1IgG[734scFv]. […] This administration is illustrated schematically in FIG. 6-9.

[1] = Biodistribution in nude mice bearing GW-39 xenografts (lock and chase); type: in vivo; conditions: mouse, tumor (GW-39 xenograft), iv, 76 ng, total radioactivity, 3 hrs post-IMP-272, assumption, read-out: amount in tumor
Procedure: To study the half-life of a pretargeted defined chemical substance (DCS), known as IMP-272 on a tumor, the following experiment is performed in nude mice bearing GW-39 human colorectal cancer xenografts. Animals receive three injections as follows: first injection of anti-CEA BS1.5HP diabody (hMN-14×679) followed 24 hours later with IMP-272, which is followed 3 hours later by the anti-In-DTPA F(ab′)2 antibody, 734. BS1.5HP is labeled with ^125I and the IMP-272 is labeled with ^111In. The synthesis and use of this diabody is disclosed in Clin. Cancer Res. 9:3886s-3896s (2003), and is herein incorporated in its entirety by reference. Known standard molecular biology methods were used to prepare the BS1.5HP
To test for maximum cross-linking of peptide on the surface of the tumor, the total protein dose of 734 F(ab′)2 injected ranges from 10 μg to 100 μg. Four groups of mice are administered 10 μCi ^125I-BS1.5HP (27 μg, 5.0×10^−10 moles) followed 24 hours later by 25 μCi ^111In-IMP-272 (5.0×10^−11 moles) for a bispecific:IMP-272 ratio of 10:1. IMP-272 is administered 3 hours before the administration of 734 F(ab′)2 to target the tumor and clear from the blood. […]
At the specified necropsy time, 5 animals are anesthetized, bled by cardiac puncture followed by cervical dislocation. […] Tissues is counted in a calibrated gamma counter for ^111In and ^125I. […]

[2] = Stability of 111In IMP 272 in fresh human serum; type: in vitro ADME; conditions: 37° C.
Procedure: (§1) ^111InCl3 (30.4 μL) was added to 500 μL of DI H2O. This solution was added to the prepared vial of IMP 272 and allowed to sit for approximately 20 minutes at room temperature. An additional 600 μL of cold In Acetate Buffer (1.0×10^−4M InCl3, 0.5M NaOAc, pH 6.5) was then added to the same vial and allowed to sit for an additional 45 minutes. The total volume was 1130 μL with a molar quantity of […] of IMP 272 yielding a concentration of 8.777×10^−6M. After the labeling was completed, the peptide was tested for stability in fresh human and nude mouse serum over 24 hrs. The peptide was also tested for binding to humanized antibodies; m679×hMN14, and, m734×hMN14.
^111In IMP 272, 60 μL, was added to 540 μL fresh human serum. This was vortexed and placed under a constant temperature of 37° C. The peptide concentration for this mixture was 8.777×10^−7M.

[3] = Stability of 111In IMP 272 in fresh nude mouse serum; type: in vitro ADME; conditions: 37° C., 24 hr
Procedure: as §1
^111In IMP 272, 44 μL, was added to 400 μl fresh nude mouse serum. This was vortexed and placed under a constant temperature of 37° C. The peptide concentration for this mixture was 8.698×10^−7M.

Compound	size of the lymphoma-involved nodes (B-cell lymphoma; CAT scans over the next few months)	localization and retention of I-131 in lymphoma involved nodes (B-cell lymphoma; radioimmunodetection)	tissue uptake at 3 h [1]	stability in human serum (conclusion) [2]	peptide state after incubation in human serum ([2]; 1 hour)	binding to HSG after incubation in human serum ([2]; 24 hr)	binding to one of the two HSG's compromised ([2]; 24 hr, size exclusion HPLC)	stability in mouse serum [3]
DTPA-Gln-Ala-Lys(HSG)-D-[I-131Tyr]-Lys(HSG)-NH2	significant reduction	intensive localization and long retention	–	–	–	–	–	–
C[C@H](NC(=O)[C@H](CCC(N)=O)NC(=O)CN(CCN(CCN(CC(=O)O)CC(=O)O)CC(=O)O)CC(=O)O)C(=O)N[C@@H](CCCCNC(=O)CNC(=O)CCC(=O)NCCc1c[nH]cn1)C(=O)N[C@H](Cc1ccc(O)cc1)C(=O)N[C@@H](CCCCNC(=O)CNC(=O)CCC(=O)NCCc1c[nH]cn1)C(N)=O (111In complex, metal not drawn) [IMP 272, DTPA-Gln-Ala-Lys(HSG)-D-Tyr-Lys(HSG)-NH2] ({DTPA}-QAK([Gly-Suc-NH(2-(imidazol-4-yl)ethyl)])[dY]K([Gly-Suc-NH(2-(imidazol-4-yl)ethyl)])-NH2)	–	–	~20 %ID/g	partially metabolized	intact	lost some of the binding to HSG	about 50%	stable

Source: patent publication US8097252B2, “Methods and compositions for administering therapeutic and diagnostic agents” (Immunomedics, Inc., priority 2003, dated 2012)
